Literature values, collected in patent publication US10342775B2, “Vitamin A for parenteral administration” (FRESENIUS KABI DEUTSCHLAND GMBH, priority 2015, dated 2019).

Structure (SMILES): CCCCCCCCCCCCCCCC(=O)OC/C=C(C)/C=C/C=C(C)/C=C/C1=C(C)CCCC1(C)C [retinol palmitate]
- solubility in water: practically insoluble in water
